Assay results as given in article PMC7525011, “Mycobacterium tuberculosis Calcium Pump CtpF Modulates the Autophagosome in an mTOR-Dependent Manner” (Frontiers in Cellular and Infection Microbiology, 2020).

Target: CtpF (Mycobacterium tuberculosis, UniProt P9WPS9)
Details: with Ca2+ or Mg2+; 1 mM ATP; 60 mM Tris pH 7.4, 100 mM KCl; described as competitive inhibitor

Sequence of CtpF (P9WPS9 whole entry): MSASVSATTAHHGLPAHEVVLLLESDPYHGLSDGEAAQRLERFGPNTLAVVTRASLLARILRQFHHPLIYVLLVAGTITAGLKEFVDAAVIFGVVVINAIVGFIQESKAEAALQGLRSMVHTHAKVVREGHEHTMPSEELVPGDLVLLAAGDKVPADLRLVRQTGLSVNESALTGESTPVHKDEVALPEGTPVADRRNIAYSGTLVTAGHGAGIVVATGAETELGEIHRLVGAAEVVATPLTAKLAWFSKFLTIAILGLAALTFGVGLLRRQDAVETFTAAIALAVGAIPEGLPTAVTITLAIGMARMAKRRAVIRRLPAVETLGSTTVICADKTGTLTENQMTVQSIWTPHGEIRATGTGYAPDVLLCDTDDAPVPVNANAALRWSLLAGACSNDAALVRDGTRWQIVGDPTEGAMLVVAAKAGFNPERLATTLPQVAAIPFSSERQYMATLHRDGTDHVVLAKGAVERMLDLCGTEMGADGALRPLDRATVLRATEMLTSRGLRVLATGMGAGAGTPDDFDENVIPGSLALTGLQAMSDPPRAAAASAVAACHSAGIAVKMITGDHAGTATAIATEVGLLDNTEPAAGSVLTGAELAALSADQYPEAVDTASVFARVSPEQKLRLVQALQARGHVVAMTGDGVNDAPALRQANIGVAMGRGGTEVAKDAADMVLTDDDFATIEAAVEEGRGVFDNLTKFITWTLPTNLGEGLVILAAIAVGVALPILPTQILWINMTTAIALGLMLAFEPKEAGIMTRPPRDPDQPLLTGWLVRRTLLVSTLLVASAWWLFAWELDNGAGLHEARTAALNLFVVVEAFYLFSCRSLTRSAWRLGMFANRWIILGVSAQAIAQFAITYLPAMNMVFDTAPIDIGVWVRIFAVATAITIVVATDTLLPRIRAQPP

## [O]=[V]([OH])([OH])[OH] [sodium orthovanadate]
  complete inhibition of Pi release: sodium orthovanadate, a competitive inhibitor of ATPase activity was used in the reaction
